Results on three compounds are retold here after patent US8392127B2, “Methods and gene expression signature for assessing growth factor signaling pathway regulation status” (Merck Sharp & Dohme Corp., priority 2008, dated 2013).

“Also recorded” adds a separate entry of the source.

The subject of assay [1] is MYC signature. Briefly: MYC signature (Bild et al.) in response to inhibition of oncology targets. It counts as cell-based. As to conditions: cancer cell lines of FIG. 6C. As for the experimental part: FIG. 6. Relationship of AKT and MYC signatures. The AKT and MYC signature scores are highly correlated in the (A) colon (r=0.81) and (B) breast (r=0.82) tumor atlas datasets. The AKT signature score was calculated as described previously. […] (C) The Bild et al. MYC signature is inhibited by small molecule inhibitors of AKT, cMET and FGFR2, but not by taxol or inhibition of KSP. […] Experiments are listed on the left side of the heatmap (HCT116: colon cancer cells, LoVo: colon cancer cells, GTL-16: gastric cancer cells, EBC-1: lung cancer cells, KATO III: gastric cancer cells, SUM52: breast cancer cells). The drug (taxol) or drug target (all others) profiled in each experiment is indicated along the right side of the heatmap.
Bild et al. published a gene expression signature that was regulated in response to cMYC (also known as MYC) overexpression in primary human mammary epithelial cells (2006, Nature, 439:353-357). This MYC signature was analyzed in the context of tumor expression atlas data. The tumor expression atlas is a collection of gene expression data measured in several different types of human tumors, including breast, colon, gastric, kidney, and lung tumors. […] Therefore, we assessed the regulation of the MYC signature in response to inhibition of AKT and other oncology targets. […]

For assay [2], the system named is INSR. Briefly: mRNA expression of growth factor receptors after growth factor treatment (microarray). It counts as cell-based, human. The note with it: MCF7 and HT29 cells; 100 ng/ml (heregulin 30 ng/ml). Here is the method:
(§1) FIG. 29. Negative feedback induced by growth factors. The data presented represents the effect of each growth factor on the mRNA expression of (A) EGFR, (B) ERBB3, (C) INSR, or (D) a recently published signature of aberrant PTEN activity. The Y-axes represent the log(10) ratio of expression relative to vehicle. […] The X-axes represent the time point after growth factor addition.
(§2) MCF-7 and HT-29 cell lines were seeded in 6-well plates to achieve 40-50% confluence at the time of growth factor addition. Cells were serum starved for 24 hours in 0.2% charcoal stripped serum, and growth factors were added at 100 ng/ml (EGF, IGF, insulin, b-FGF) or 30 ng/ml (heregulin). Concentrations of growth factors were chosen to give maximal activation of growth factor receptors as judged by receptor auto-phosphorylation. Activation of growth factor receptor pathways after growth factor addition was confirmed by Western analysis of phosphorylated MAPK and phosphorylated AKT in a separate plate of cells (data not shown). Cells were harvested at 30 minutes, 2 hours, 6 hours, 18 hours, and 24 hours after growth factor addition. DMSO (vehicle) treated cells were also harvested at each time point. RNA was prepared using RLT lysis reagent Qiagen spin columns according to manufacturer instructions.
(§3) For growth factor and AKT inhibitor treated cells, total RNA was isolated from cell lines and converted to fluorescently labeled cRNA that was hybridized to DNA oligonucleotide microarrays as described previously (Hughes et al., 2001, Nat. Biotechnol. 19:342-347; Marton et al., 1998, Nat. Med. 4:1293-1301). Briefly, 4 μg of total RNA from each treated sample was used to synthesize dsDNA through reverse transcription. cRNA was produced by in vitro transcription and labeled post-synthetically with Cy3 or Cy5. cRNA derived from growth factor or AKT inhibitor treated cells (experimental sample) was hybridized against cRNA derived from vehicle treated samples (reference sample). Two hybridizations were done with each cRNA sample pair using fluorescent dye reversal strategy. For growth factor treated cells, microarrays contained 23,880 probes representing genes or expressed sequence tags (GEO platform GPL2029). For AKT inhibitor treated cells, microarrays contained 23,658 probes representing genes or expressed sequence tags (GEO platform GPL3991). Probe sequences were chosen to maximize gene specificity and minimize the 3′-replication bias inherent in reverse transcription of mRNA. In addition, all microarrays contained approximately 2,000 control probes for quality control purposes. All probes on the microarrays were synthesized in situ with inkjet technology (Agilent Technologies, Palo Alto, Calif.; Hughes et al, 2001, Nat. Biotechnol. 19:342-347). After hybridization, arrays were scanned and fluorescence intensities for each probe were recorded. Ratios of transcript abundance (experimental to control) were obtained following normalization and correction of the array intensity data. Gene expression data was analyzed using Rosetta Resolver gene expression analysis software (version 7.0, Rosetta Biosoftware, Seattle, Wash.) and MATLAB (The MathWorks, Natick, Mass.).
(§4) As such, care should be taken when using mRNA levels of ERBB3 or INSR as a surrogate for activity of signaling through these receptors.

The test system of assay [3] is ERBB3. The description is as above. The note with it: MCF7 and HT29 cells; 100 ng/ml (heregulin 30 ng/ml). It counts as cell-based, human. As for the experimental part: as §1, §2, §3, §4
Assay [4] deals with EGFR. The description is as above. It counts as cell-based, human. The note with it: MCF7 and HT29 cells; 100 ng/ml (heregulin 30 ng/ml). As for the experimental part: as §1, §2, §3, §4
Assay [5] concerns MAXF-713. Put plainly: Patient-derived tumor xenograft growth inhibition (T/C). It counts as in vivo, NMRI female nu/nu mice. As to conditions: 500 μg/mouse ip once weekly.
In assay [6] the test system is growth factor signaling pathway signature in MAXF-713. Briefly: Growth factor signaling pathway signature score post/pre-dose ratio in xenografts. It counts as in vivo, NMRI female nu/nu mice. As to conditions: 24 hours after a single treatment, 500 μg/mouse ip. As for the experimental part: (§5) Animals of Groups 3 and 4 were sacrificed for sample collection when the tumors had volumes between 400 and 600 mm^3 and 24 hours after a single treatment with either the control vehicle (Group 3) or IGF1R (Group 4). Tumors were cut into two parts, snap frozen in liquid nitrogen and stored at −80° C. RNA was harvested from both vehicle-treated and MK0646-treated samples as previously described for hybridization to DNA oligonucleotide arrays.
(§6) Regulation of the growth factor signaling pathway signature by MK-0646 was assessed by comparing mean gene expression profiles of MK0646 treated samples for each xenograft to the mean gene expression profile of the vehicle treated samples. The log(10) ratio of expression in the MK-0646 treated samples relative to the vehicle treated samples was calculated for every probe on the microarray. The growth factor signaling pathway signature score was calculated as the mean log(10) ratio of the genes in the “up” arm of the signature (see Table 5a) minus the mean log(10) ratio of the genes in the “down” arm of the signature (see Table 5b). A post/pre-dose ratio of the growth factor signaling pathway signature score was then calculated and compared to the tumor inhibition T/C ratio for each xenograft (see FIG. 34).

Assay [7] relates to growth factor signaling pathway signature in LXFA-629. The assay is described as above. Format: in vivo, NMRI female nu/nu mice. As to conditions: 24 hours after a single treatment, 500 μg/mouse ip. As for the experimental part:
as §5, §6

Assay [8] concerns SXF-1186. Briefly: Patient-derived tumor xenograft growth inhibition (T/C). The note with it: 500 μg/mouse ip once weekly. It counts as in vivo, NMRI female nu/nu mice.
Assay [9] relates to CSF-1729. Described as above. It counts as in vivo, NMRI female nu/nu mice. The note with it: 500 μg/mouse ip once weekly. An excerpt:
(§7) NMRI female nu/nu mice were subcutaneously implanted with patient-derived tumor xenografts: lung adenocarcinoma LXFA 526, LXFA 629, LXFA 677, LXFA 749 and LXFA 1012; squamous cell lung carcinoma LXFE, 211, LXFE 397, LXFE 409 and LXFE 1422; small cell lung cancer LXFS 538, LXFS 573 and LXFS 615; colorectal carcinoma CXF 94LX, CXF 158, CXF 280, CXF 975, CXF 1103 and CXF 1729; renal cell carcinoma RXF 393, RXF 423, RXF 631 and RXF 1220; gastric cancer GXF 97, GXF 251 and GXF 281; ovarian cancer OVXF 550, OVXF 899, OVXF 1023, OVXF 1353 and OVXF 1544 (Oncotest GmbH, Freiburg, Germany). All tumor xenografts were derived from surgical specimen from human patients and directly transplanted into nude mice for propagation. Tumor xenografts were passaged in nude mice until establishment of a stable growth pattern. Master stocks of early passage xenografts were frozen in liquid nitrogen. A particular master stock batch is typically only used for about 20 further passages. Tumor fragments were obtained from xenografts in serial passage in nude mice. After removal of tumors from donor mice, they were cut into fragments (1-2 mm diameter) and placed RPMI 1640 culture medium until subcutaneous implantation. Recipient mice were anesthetized by inhalation of isoflurane. Tumor fragments (1-2 per mouse) were transplanted subcutaneously into the backs of recipient mice. Animals carrying at least one tumor of appropriate size (mean tumor diameter 6-8 mm, minimum acceptable tumor diameter 5 mm) were considered for randomization into treatment and vehicle control groups.
(§8) MK-0646 IGF1R monoclonal antibody (U.S. Pat. No. 7,241,444) was diluted to a final dosing concentration of 2 mg/mL with 20 mM—L Histidine, 150 mM NaCl, 0.5% PS—80 w/w pH 6.5 at ratio of 1:5.65. The diluted treatment solution was administered at an application volume of 250 μl/mouse for the dose level of 500 μg/mouse. The control vehicle was 20 mM-L Histidine, 150 mM NaCl, 0.5% PS-80 w/w, pH6.5. Vehicle was administered at 250 μl/mouse. IGF1R monoclonal antibody and control vehicle were injected intraperitoneally. Test and control mice were injected once a week on the same days. The number of injections ranged from 2 to 7, depending on the duration of the experiment. Experiments were terminated when one of the limits set by the German animal regulations was met.
(§9) Each experiment consisted of a vehicle control group (Group 1) receiving 20 mM-L Histidine, 150 mM NaCl, 0.5% PS-80 w/w, pH6.5 at 250 μL/mouse ip once weekly and one group treated with IGF-1R at 500 μg/mouse ip once weekly (Group 2). For sample collection purposes each experiment also comprised two groups (Groups 3 and 4) receiving a single therapy either with the vehicle or with IGF-1R at the same dose levels. According to the study protocol the group size in the efficacy groups (Groups 1 and 2) was 7 mice while the sample collection groups (Group 3 and 4) contained 3 nude mice each. In the experiments with CXF 1103 and RXF 631 bearing mice the efficacy groups contained 8 mice and group size in the efficacy groups of the experiment with LXFE 211 bearing nude mice was 9. […]
(§10) Relative volumes of individual tumors (RTVs) for Day x were calculated by dividing the individual tumor volume on Day X (Tx) by the individual volume of the same tumor on Day 0 (T0) multiplied by 100%.
(§11) [formula] Group tumor volumes were expressed as the median RTV of all tumors in a group (group median RTV). […]

For assay [10], the system named is OVXF-899. Described as above. It counts as in vivo, NMRI female nu/nu mice. The note with it: 500 μg/mouse ip once weekly.
Description: as §7, §8, §9, §10, §11

The test system of assay [11] is LXFA-629. The description is as above. It counts as in vivo, NMRI female nu/nu mice. As to conditions: 500 μg/mouse ip once weekly.
Description: as §7, §8, §9, §10, §11

The subject of assay [12] is CSF-94LX. Described as above. The note with it: 500 μg/mouse ip once weekly. It counts as in vivo, NMRI female nu/nu mice.
Description: as §7, §8, §9, §10, §11

In assay [13] the test system is CSF-280. The assay is described as above. Format: in vivo, NMRI female nu/nu mice. The note with it: 500 μg/mouse ip once weekly.
Description: as §7, §8, §9, §10, §11

In the case of `CC(=O)O[C@H]1C(=O)[C@@]2(C)[C@H]([C@H](OC(=O)c3ccccc3)[C@]3(O)C[C@H](OC(=O)[C@H](O)[C@@H](NC(=O)c4ccccc4)c4ccccc4)C(C)=C1C3(C)C)[C@]1(OC(C)=O)CO[C@@H]1C[C@@H]2O` [taxol], the “inhibition of the MYC signature developed by Bild et al.” value in assay [1] is reported as “not inhibited”.
With “EGF: growth factor added to cells at 100 ng/ml”, the “INSR mRNA expression” value in assay [2] is “significant down-regulation”. For the same compound, in assay [3], the “ERBB3 mRNA expression” value was “significant down-regulation”. Also, the “EGFR mRNA expression” value in assay [4] was “did not result in down-regulation”.
Take “MK-0646: IGF1R monoclonal antibody (U.S. Pat. No. 7,241,444)”: the “tumor inhibition (T/C ratio)” value in [5] is recorded as “strong tumor inhibition; also recorded: most tumor inhibition”; in [8], “moderate response”; in [9], “moderate response”; in assay [10], “strong tumor inhibition”; in assay [11] it was “strong tumor inhibition; also recorded: most tumor inhibition”; in assay [12], “strong tumor inhibition”. Also, the “tumor inhibition (T/C ratio)” value in [13] is “moderate response”. Moreover, the “growth factor signaling score post/pre-dose ratio” value in assay [6] and in assay [7] was “low” in each case.
